Columns and labels:
[1] = system: HOP-92; test: In vitro total growth inhibition against non-small-cell lung cancer HOP-92 cell lines was reported.; details: Homo sapiens, read-out: Log TGI (converted)
[2] = system: SK-OV-3; test: In vitro growth inhibition against ovarian cancer SK-OV-3 cell line was reported.; format: functional; details: Homo sapiens
[3] = system: MDA-MB-435; test: In vitro growth inhibition against breast cancer MDA-MB-435 cell line was reported.; details: Homo sapiens
[4] = system: CCRF-CEM; test: In vitro total growth inhibition against leukemia CCRF cell lines was reported.; format: functional; details: Homo sapiens, read-out: Log TGI (converted)
[5] = system: HCT-116; test: In vitro growth inhibition against colon cancer HCT116 cell line was reported.; format: functional; details: Homo sapiens
[6] = system: HCC 2998; test: In vitro growth inhibition against colon cancer HCC2998 cell line was reported.; format: functional; details: Homo sapiens
[7] = system: SF-295; test: In vitro total growth inhibition against CNS cancer SF-295 cell lines was reported.; format: functional; details: Homo sapiens, read-out: Log TGI (converted)
[8] = system: DU-145; test: In vitro growth inhibition against prostate cancer […] cell line was reported.; format: functional; details: Homo sapiens
[9] = system: MOLT-4; test: In vitro total growth inhibition against leukemia MOLT-4 cell lines was reported.; format: functional; details: Homo sapiens, read-out: Log TGI (converted)
[10] = system: IGROV-1; test: In vitro total growth inhibition against ovarian cancer IGROV1 cell lines was reported.; format: functional; details: Homo sapiens, read-out: Log TGI (converted)
[11] = system: HT-29; test: In vitro growth inhibition against colon cancer HT-29 cell line was reported.; format: functional; details: Homo sapiens
[12] = system: COLO 205; test: Log of molar concentration leading to 50% cell death against colon cancer COLO 205 cell line was reported; format: functional; details: Homo sapiens, read-out: Log LC50 (the source's name) (converted)
[13] = system: OVCAR-3; test: In vitro total growth inhibition against ovarian cancer OVCAR-3 cell lines was reported.; format: functional; details: Homo sapiens, read-out: Log TGI (converted)
[14] = system: DU-145; test: In vitro total growth inhibition against prostate cancer […] cell lines was reported.; format: functional; details: Homo sapiens, read-out: Log TGI (converted)
[15] = system: EKVX; test: Log of molar concentration leading to 50% cell death against non-small-cell lung cancer EKVX cell line was reported; format: functional; details: Homo sapiens, read-out: Log LC50 (the source's name) (converted)
[16] = system: RPMI-8226; test: Log of molar concentration leading to 50% cell death against leukemia […] cell line was reported; format: functional; details: Homo sapiens, read-out: Log LC50 (the source's name) (converted)
[17] = system: KM12; test: In vitro growth inhibition against colon cancer KM12 cell line was reported.; format: functional; details: Homo sapiens
[18] = system: UACC-62; test: In vitro total growth inhibition against melanoma UACC-62 cell lines was reported.; format: functional; details: Homo sapiens, read-out: Log TGI (converted)
[19] = system: Tumor Cell line; test: Log of molar concentration leading to 50% cell death was reported; format: functional; details: Homo sapiens, read-out: Log LC50 (the source's name) (converted)
[20] = system: BT-549; test: In vitro growth inhibition against breast cancer BT 549 cell line was reported.; format: functional; details: Homo sapiens
[21] = system: SF-295; test: In vitro growth inhibition against CNS cancer SF-295 cell line was reported.; format: functional; details: Homo sapiens
[22] = system: CAKI-1; test: In vitro growth inhibition against renal cancer CAKI-1 cell line was reported.; format: functional; details: Homo sapiens
[23] = system: ACHN; test: In vitro total growth inhibition against renal cancer ACHN cell lines was reported.; format: functional; details: Homo sapiens, read-out: Log TGI (converted)
[24] = system: NCI-H46; test: Log of molar concentration leading to 50% cell death against non-small-cell lung cancer […] cell line was reported; format: functional; details: Homo sapiens, read-out: Log LC50 (the source's name) (converted)
[25] = system: MCF7; test: In vitro total growth inhibition against breast cancer MCF 7 cell lines was reported.; format: functional; details: Homo sapiens, read-out: Log TGI (converted)
[26] = system: Hs-578T; test: In vitro growth inhibition against breast cancer HS 578T cell line was reported.; format: functional; details: Homo sapiens
[27] = system: SNB-75; test: In vitro growth inhibition against CNS cancer SNB-75 cell line was reported.; format: functional; details: Homo sapiens
[28] = system: OVCAR-8; test: Log of molar concentration leading to 50% cell death against ovarian cancer OVCAR-8 cell line was reported; format: functional; details: Homo sapiens, read-out: Log LC50 (the source's name) (converted)
[29] = system: UO-31; test: In vitro total growth inhibition against renal cancer UO-31 cell lines was reported.; format: functional; details: Homo sapiens, read-out: Log TGI (converted)
[30] = system: MDA-N; test: In vitro total growth inhibition against breast cancer MDA-N cell lines was reported.; format: functional; details: Homo sapiens, read-out: Log TGI (converted)
[31] = system: MDA-N; test: In vitro growth inhibition against breast cancer MDA-N cell line was reported.; format: functional; details: Homo sapiens
[32] = system: SK-MEL-5; test: Log of molar concentration leading to 50% cell death against melanoma SK-MEL-5 cell line was reported; format: functional; details: Homo sapiens, read-out: Log LC50 (the source's name) (converted)
[33] = system: CAKI-1; test: In vitro total growth inhibition against renal cancer CAKI-1cell lines was reported.; format: functional; details: Homo sapiens, read-out: Log TGI (converted)
[34] = system: SR; test: In vitro total growth inhibition against leukemia SR cell lines was reported.; format: functional; details: Homo sapiens, read-out: Log TGI (converted)
[35] = system: HCC 2998; test: In vitro total growth inhibition against colon cancer HCC2998 cell lines was reported.; format: functional; details: Homo sapiens, read-out: Log TGI (converted)
[36] = system: SR; test: In vitro growth inhibition against leukemia SR cell line was reported.; format: functional; details: Homo sapiens
[37] = system: SF-295; test: Log of molar concentration leading to 50% cell death against CNS cancer SF-295 cell line was reported; format: functional; details: Homo sapiens, read-out: Log LC50 (the source's name) (converted)
[38] = system: UACC-62; test: Log of molar concentration leading to 50% cell death against melanoma UACC-62 cell line was reported; format: functional; details: Homo sapiens, read-out: Log LC50 (the source's name) (converted)
[39] = system: HOP-62; test: In vitro growth inhibition against non-small-cell lung cancer HOP-62 cell line was reported.; format: functional; details: Homo sapiens
[40] = system: SK-MEL-2; test: Log of molar concentration leading to 50% cell death against melanoma SK-MEL-2 cell line was reported; format: functional; details: Homo sapiens, read-out: Log LC50 (the source's name) (converted)
[41] = system: SNB-19; test: In vitro growth inhibition against CNS cancer SNB-19 cell line was reported.; format: functional; details: Homo sapiens
[42] = system: ACHN; test: In vitro growth inhibition against renal cancer ACHN cell line was reported.; format: functional; details: Homo sapiens
[43] = system: MDA-MB-231; test: Log of molar concentration leading to 50% cell death against breast cancer MDA-MB-231/ATCC cell line was reported; format: functional; details: Homo sapiens, read-out: Log LC50 (the source's name) (converted)
[44] = system: BT-549; test: In vitro total growth inhibition against breast cancer BT 549 cell line was reported.; format: functional; details: Homo sapiens, read-out: Log TGI (converted)
[45] = system: UACC-257; test: In vitro total growth inhibition against melanoma UACC-257 cell line was reported.; format: functional; details: Homo sapiens
[46] = system: NCI-H322M; test: In vitro growth inhibition against non-small-cell lung cancer […] cell line was reported.; format: functional; details: Homo sapiens
[47] = system: SF-539; test: In vitro total growth inhibition against CNS cancer SF-539 cell lines was reported.; format: functional; details: Homo sapiens, read-out: Log TGI (converted)
[48] = system: NCI/ADR-RES; test: In vitro growth inhibition against breast cancer NCI/ADR-RES cell line was reported.; format: functional; details: Homo sapiens
[49] = system: U-251; test: Log of molar concentration leading to 50% cell death against CNS cancer U251 cell line was reported; format: functional; details: Homo sapiens, read-out: Log LC50 (the source's name) (converted)
[50] = system: CCRF-CEM; test: In vitro growth inhibition against leukemia CCRF-CEM cell line was reported.; format: functional; details: Homo sapiens
[51] = system: OVCAR-5; test: In vitro growth inhibition against ovarian cancer OVCAR-5 cell line was reported.; format: functional; details: Homo sapiens
[52] = system: MDA-MB-435; test: In vitro total growth inhibition against breast cancer MDA-MB-435 cell lines was reported.; details: Homo sapiens, read-out: Log TGI (converted)
[53] = system: LOX IMVI; test: In vitro growth inhibition against melanoma LOX IMVI cell line was reported.; format: functional; details: Homo sapiens
[54] = system: NCI-H522; test: In vitro growth inhibition against non-small-cell lung cancer […] cell line was reported.; format: functional; details: Homo sapiens
[55] = system: PC-3; test: In vitro growth inhibition against prostate cancer PC-3 cell line was reported.; format: functional; details: Homo sapiens
[56] = system: M14; test: In vitro total growth inhibition against melanoma M14 cell lines was reported.; format: functional; details: Homo sapiens, read-out: Log TGI (converted)
[57] = system: HCT-116; test: In vitro total growth inhibition against colon cancer HCT116 cell lines was reported.; format: functional; details: Homo sapiens, read-out: Log TGI (converted)
[58] = system: NCI-H46; test: In vitro total growth inhibition against non-small-cell lung cancer […] cell lines was reported.; format: functional; details: Homo sapiens, read-out: Log TGI (converted)
[59] = system: OVCAR-4; test: In vitro total growth inhibition against ovarian cancer OVCAR-4 cell lines was reported.; format: functional; details: Homo sapiens, read-out: Log TGI (converted)
[60] = system: SW-620; test: In vitro total growth inhibition against colon cancer SW-620 cell lines was reported.; format: functional; details: Homo sapiens, read-out: Log TGI (converted)

`O=C(Nc1cccc2nsnc12)c1cc2c(cc1Cl)Sc1nccn1S2(=O)=O` was tested, and the TGI [1] was 25.7 µM, the GI50 [2] was 45.7 µM and the GI50 [3] was 8.13 µM. The TGI [4] was 13.5 µM, the GI50 [5] was 2.57 µM and the GI50 [6] was 3.39 µM. The TGI [7] was 25.1 µM, the GI50 [8] was 1.74 µM and the TGI [9] was 9.33 µM. For the same compound, the TGI [10] was 23.4 µM, the GI50 [11] was 2.24 µM and the CC50 [12] was 56.2 µM. The TGI [13] was 3.47 µM, the TGI [14] was 3.24 µM and the CC50 [15] was 9.77 µM. For the same compound, the CC50 [16] was 7.94 µM, the GI50 [17] was 2.04 µM and the TGI [18] was 17.8 µM. It also gave a CC50 [19] of 95.5 µM, a GI50 [20] of 12.3 µM and a GI50 [21] of 11.2 µM. For the same compound, the GI50 [22] was 4.79 µM, the TGI [23] was 36.3 µM and the CC50 [24] was 8.91 µM. The TGI [25] was 3.39 µM, the GI50 [26] was 4.17 µM and the GI50 [27] was 3.89 µM. It also gave a CC50 [28] of 38 µM, a TGI [29] of 4.37 µM and a TGI [30] of 27.5 µM. The GI50 [31] was 13.5 µM, the CC50 [32] was 72.4 µM and the TGI [33] was 19.1 µM. It also gave a TGI [34] of 4.79 µM, a TGI [35] of 11.7 µM and a GI50 [36] of 2 µM. The CC50 [37] was 55 µM, the CC50 [38] was 41.7 µM and the GI50 [39] was 1.66 µM. For the same compound, the CC50 [40] was 64.6 µM, the GI50 [41] was 12 µM and the GI50 [42] was 12.6 µM. The CC50 [43] was 53.7 µM, the TGI [44] was 32.4 µM and the GI50 [45] was 1.82 µM. For the same compound, the GI50 [46] was 1.78 µM, the TGI [47] was 4.9 µM and the GI50 [48] was 17.8 µM. It also gave a CC50 [49] of 44.7 µM, a GI50 [50] of 3.24 µM and a GI50 [51] of 29.5 µM. The TGI [52] was 49 µM, the GI50 [53] was 5.25 µM and the GI50 [54] was 5.37 µM. It also gave a GI50 [55] of 1.91 µM, a TGI [56] of 46.8 µM and a TGI [57] of 5.37 µM. The TGI [58] was 4.27 µM, the TGI [59] was 10.2 µM and the TGI [60] was 46.8 µM.

— ChEMBL document CHEMBL1135808, “A new type of mixed anhydride and its applications to the synthesis of 7-substituted 8-chloro-5,5-dioxoimidazo[1,2-b][1,4,2]benzodithiazines with in vitro antitumor activity” (2002)
